Measurements: ChEMBL document CHEMBL5303304, “EUbOPEN Chemogenomics Library - IncuCyte” (2023)

How the values were obtained:
Type in all cases: toxicity, cell-based
Fibroblast = assay: Incucyte cell viability with human fibroblast; settings: 10 µM, compound concentration 10 uM
HEK-293T = assay: Incucyte cell viability with HEK293T; settings: human, 10 µM, compound concentration 10 uM
U2OS = assay: Incucyte cell viability with U2OS; settings: human, 10 µM, compound concentration 10 uM
Note: unitless GR value; below 1 slowed growth and below 0 cell loss.

| SMILES | Growth Rate (Fibroblast; 0 h, replicate number 1) | Growth Rate (Fibroblast; 18 h, replicate number 1) | Growth Rate (Fibroblast; 18 h, replicate number 2) | Growth Rate (Fibroblast; 24 h, replicate number 1) | Growth Rate (HEK-293T; 6 h, replicate number 1) | Growth Rate (HEK-293T; 6 h, replicate number 2) | Growth Rate (HEK-293T; 12 h, replicate number 1) | Growth Rate (HEK-293T; 12 h, replicate number 2) | Growth Rate (HEK-293T; 18 h, replicate number 1) | Growth Rate (HEK-293T; 18 h, replicate number 2) | Growth Rate (HEK-293T; 24 h, replicate number 2) | Growth Rate (U2OS; 6 h, replicate number 1) | Growth Rate (U2OS; 12 h, replicate number 1) | Growth Rate (U2OS; 12 h, replicate number 2) | Growth Rate (U2OS; 18 h, replicate number 2) | Growth Rate (U2OS; 24 h, replicate number 1) | Growth Rate (U2OS; 24 h, replicate number 2) | Growth Rate (Fibroblast; 6 h, replicate number 1) | Growth Rate (U2OS; 0 h, replicate number 1) | Growth Rate (Fibroblast; 0 h, replicate number 2) | also measured |
| --- | --- | --- | --- | --- | --- | --- | --- | --- | --- | --- | --- | --- | --- | --- | --- | --- | --- | --- | --- | --- | --- |
| CN1CCN(c2ccc(C(=O)Nc3n[nH]c4ccc(Cc5cc(F)cc(F)c5)cc34)c(NC3CCOCC3)c2)CC1 [ENTRECTINIB] | -0.42 | -0.92 | -0.89 | -0.82 | -0.98 | -0.99 | -0.89 | -0.8 | -0.67 | -0.58 | -0.42 | -0.92 | -0.62 | -0.45 | -0.56 | -0.66 | -0.6 |  |  |  | Growth Rate (Fibroblast; 6 h, replicate number 2): -1; Growth Rate (Fibroblast; 12 h, replicate number 2): -0.97; Growth Rate (Fibroblast; 24 h, replicate number 2): -0.77; Growth Rate (HEK-293T; 24 h, replicate number 1): -0.54; Growth Rate (U2OS; 0 h, replicate number 2): -1; Growth Rate (U2OS; 6 h, replicate number 2): -0.57; Growth Rate (U2OS; 18 h, replicate number 1): -0.64 |
| CN(C)CCC[C@@]1(c2ccc(F)cc2)OCc2cc(C#N)ccc21 [ESCITALOPRAM] | -1 | 0.69 | 0.85 | 0.84 |  |  | 0.84 | 0.97 | 0.56 | 0.59 |  | 0.62 | 1 |  |  | 0.9 |  | 0.67 | 0.18 |  | Growth Rate (Fibroblast; 24 h, replicate number 2): 0.74; Growth Rate (HEK-293T; 0 h, replicate number 1): -0.16; Growth Rate (HEK-293T; 0 h, replicate number 2): 0.57; Growth Rate (HEK-293T; 24 h, replicate number 1): 0.6 |
| CCOC(=O)c1cncn1[C@H](C)c1ccccc1 [ETOMIDATE] | 0.28 | 0.21 |  | -0.16 | 0.68 |  |  |  |  |  |  |  | 0.97 |  | 0.87 | 0.98 |  |  | 0.35 | 0.93 | Growth Rate (U2OS; 0 h, replicate number 2): -0.28; Growth Rate (U2OS; 6 h, replicate number 2): 0.83; Growth Rate (U2OS; 18 h, replicate number 1): 0.9 |
| C[C@H]1CN(C2COC2)CCN1c1ccc(Nc2cc(-c3ccnc(N4CCn5c(cc6c5CC(C)(C)C6)C4=O)c3CO)cn(C)c2=O)nc1 [FENEBRUTINIB] | -1 |  | 0.94 |  | 0.81 | 0.76 |  |  |  |  |  | 0.53 | 0.69 | 0.99 | 0.98 | 0.81 | 1 | 0.44 |  | -0.77 | Growth Rate (Fibroblast; 12 h, replicate number 2): 0.46 |
| COCCNc1cc(NC(=O)N2CCCc3cc(CN4CCN(C)CC4=O)c(C=O)nc32)ncc1C#N [FGF401] |  | 0.24 |  | 0.74 | 0.68 | 0.95 |  | 0.82 | 0.87 | 0.98 |  | 0.86 | 0.86 |  |  | 0.98 |  | 0.08 | -0.62 | 0.95 | Growth Rate (Fibroblast; 12 h, replicate number 1): -1; Growth Rate (HEK-293T; 0 h, replicate number 2): 0.45; Growth Rate (U2OS; 18 h, replicate number 1): 0.93 |
| COc1ccc(Cl)cc1[C@]1(F)C(=O)Nc2cc(C(F)(F)F)ccc21 [FLINDOKALNER] |  |  | 0.41 |  | 0.73 | 0.03 | 0.58 | 0.38 | 0.42 | 0.4 | 0.47 |  | 0.57 | 0.76 | 0.88 | 0.83 | 0.95 | -0.6 |  |  | Growth Rate (Fibroblast; 6 h, replicate number 2): -1; Growth Rate (Fibroblast; 12 h, replicate number 1): -1; Growth Rate (Fibroblast; 12 h, replicate number 2): 0.2; Growth Rate (Fibroblast; 24 h, replicate number 2): 0.58; Growth Rate (HEK-293T; 0 h, replicate number 1): 0.73; Growth Rate (HEK-293T; 24 h, replicate number 1): 0.44; Growth Rate (U2OS; 6 h, replicate number 2): 0.48; Growth Rate (U2OS; 18 h, replicate number 1): 0.79 |
| O=C(O)CCC/C=C\C[C@@H]1[C@@H](/C=C/[C@@H](O)COc2cccc(C(F)(F)F)c2)[C@H](O)C[C@@H]1O [FLUPROSTENOL] |  | 0.89 | 0.18 | 0.8 |  |  |  |  |  |  |  | 0.86 |  | 0.91 | 0.9 |  | 0.91 | 0.15 | 0.61 |  | Growth Rate (Fibroblast; 6 h, replicate number 2): -0.58; Growth Rate (Fibroblast; 12 h, replicate number 1): 0.5; Growth Rate (Fibroblast; 12 h, replicate number 2): 0.09; Growth Rate (Fibroblast; 24 h, replicate number 2): 0.44; Growth Rate (HEK-293T; 0 h, replicate number 1): -0.11; Growth Rate (HEK-293T; 0 h, replicate number 2): 0.68; Growth Rate (U2OS; 6 h, replicate number 2): 0.95 |
| Cc1nc2c([nH]1)c(=O)n(C)c(=O)n2Cc1ccco1 [FURAFYLLINE] |  | 0.5 |  | 0.65 | 0.19 | 0.63 | 0.18 | 0.76 | 0.7 | 0.82 | 0.88 |  | 0.95 |  | 1 |  |  | 0.42 | -0.64 | -0.99 | Growth Rate (Fibroblast; 12 h, replicate number 1): -1; Growth Rate (HEK-293T; 24 h, replicate number 1): 0.87; Growth Rate (U2OS; 0 h, replicate number 2): -0.96; Growth Rate (U2OS; 6 h, replicate number 2): 0.59 |
| COc1ccc(CCN(C)CCCC(C#N)(c2cc(OC)c(OC)c(OC)c2)C(C)C)cc1OC.Cl (centres undefined) [GALLOPAMIL HYDROCHLORIDE] | -0.26 |  | 0.41 |  | 0.31 |  | 0.9 | 0.97 |  | 0.94 | 0.94 |  |  |  |  |  | 1 | -0.5 |  |  | Growth Rate (Fibroblast; 6 h, replicate number 2): 0.16; Growth Rate (Fibroblast; 12 h, replicate number 1): 0.03; Growth Rate (Fibroblast; 12 h, replicate number 2): 0.12; Growth Rate (Fibroblast; 24 h, replicate number 2): 0.73; Growth Rate (U2OS; 0 h, replicate number 2): -0.88 |
| Cc1cccc(-c2nn3c(c2-c2ccnc4ccc(C(N)=O)cc24)CCC3)n1 [GALUNISERTIB] |  |  |  |  |  | 0.64 |  | 0.74 |  | 0.73 | 0.8 | 0.57 | 0.66 | 0.83 | 0.87 | 0.93 | 0.76 |  | -0.43 | -0.6 | Growth Rate (HEK-293T; 0 h, replicate number 1): -0.5; Growth Rate (U2OS; 0 h, replicate number 2): 0.64; Growth Rate (U2OS; 18 h, replicate number 1): 0.75 |
| CN[C@@H](C)C(=O)N[C@H](C(=O)N1CCC[C@H]1C(=O)Nc1snnc1-c1ccccc1)C1CCCCC1 [GDC-0152] | -0.28 | 0.81 |  |  | 0.13 | -0.14 | -0.36 | 0.05 | -0.27 | 0.07 | 0.07 |  |  | 0.89 | 0.98 |  | 0.98 | -0.88 | 0.23 | -0.71 | Growth Rate (HEK-293T; 0 h, replicate number 1): 0.81; Growth Rate (HEK-293T; 24 h, replicate number 1): -0.26 |
